Converted amounts (≈) assume the structure as drawn. Where two headings read alike, the source gives them in different places.
Key:
[1] = tested on: Staphylococcus aureus ATCC BAA-976; test: MIC, broth microdilution, MDR/BPSA reference strain; type: cell-based; conditions: ATCCBAA976; Staphylococcus aureus ATCC BAA-976; read-out: MIC MDR/BPSA
In short: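 Compounds tested as free bases dissolved in DMSO (1 mg/mL stock); determinations done twice; linezolid as positive control.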

[2] = tested on: clinical MDR Staphylococcus epidermidis isolates; test: MIC, broth microdilution, 81 clinical MDR strains; type: cell-based; conditions: Staphylococcus epidermidis
In short: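 MICs were determined by twofold broth microdilution in cation-adjusted Mueller-Hinton II broth per EUCAST, over 50–0.1 µg/mL, in duplicate. Compounds were tested as free bases dissolved in DMSO; MIC50 and MIC90 were derived across the 81 clinical MDR S. epidermidis strains.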

Q: With `O=S(=O)(NC1CCN(CCC(Oc2ccc(C(F)(F)F)cc2)c2cccs2)CC1)c1cccc(Cl)c1` (stereo not shown) [Compound 14] as the compound, how does the MIC [1] read?
A: 12.5 µg/mL (≈ 22.4 µM)

Q: And the MIC ([2]; clinical strain 1 (Table S2), read-out: MIC)?
A: 0.1 µg/mL (≈ 0.179 µM)

Q: What about the MIC ([2]; clinical strain 2 (Table S2), read-out: MIC) of the same compound?
A: 0.4 µg/mL (≈ 0.715 µM)

Q: And the MIC ([2]; clinical strain 3 (Table S2), read-out: MIC)?
A: 0.8 µg/mL (≈ 1.43 µM)

Q: And the MIC ([2]; clinical strain 4 (Table S2), read-out: MIC)?
A: 1.6 µg/mL (≈ 2.86 µM)

Q: What about the MIC ([2]; clinical strain 5 (Table S2), read-out: MIC) of the same compound?
A: 3.12 µg/mL (≈ 5.59 µM)

Q: And the MIC ([2]; clinical strain 6 (Table S2), read-out: MIC)?
A: 0.8 µg/mL (≈ 1.43 µM)

Q: And the MIC ([2]; clinical strain 7 (Table S2), read-out: MIC)?
A: 3.12 µg/mL (≈ 5.59 µM)

Q: What about the MIC ([2]; clinical strain 8 (Table S2), read-out: MIC) of the same compound?
A: 1.6 µg/mL (≈ 2.86 µM)

Q: What about the MIC ([2]; clinical strain 9 (Table S2), read-out: MIC) of the same compound?
A: 1.6 µg/mL (≈ 2.86 µM)

Q: And the MIC ([2]; clinical strain 10 (Table S2), read-out: MIC)?
A: 3.12 µg/mL (≈ 5.59 µM)

Q: And the MIC ([2]; clinical strain 11 (Table S2), read-out: MIC)?
A: 3.12 µg/mL (≈ 5.59 µM)

Q: And the MIC ([2]; clinical strain 12 (Table S2), read-out: MIC)?
A: 6.25 µg/mL (≈ 11.2 µM)

Q: And the MIC ([2]; clinical strain 13 (Table S2), read-out: MIC)?
A: 6.25 µg/mL (≈ 11.2 µM)

Q: And the MIC ([2]; clinical strain 14 (Table S2), read-out: MIC)?
A: 6.25 µg/mL (≈ 11.2 µM)

Q: What about the MIC ([2]; clinical strain 15 (Table S2), read-out: MIC) of the same compound?
A: 1.6 µg/mL (≈ 2.86 µM)

Q: What about the MIC ([2]; clinical strain 16 (Table S2), read-out: MIC) of the same compound?
A: 1.6 µg/mL (≈ 2.86 µM)

Q: What about the MIC ([2]; clinical strain 17 (Table S2), read-out: MIC) of the same compound?
A: 3.12 µg/mL (≈ 5.59 µM)

Q: And the MIC ([2]; clinical strain 18 (Table S2), read-out: MIC)?
A: 3.12 µg/mL (≈ 5.59 µM)

Q: What about the MIC ([2]; clinical strain 19 (Table S2), read-out: MIC) of the same compound?
A: 3.12 µg/mL (≈ 5.59 µM)

Q: And the MIC ([2]; clinical strain 20 (Table S2), read-out: MIC)?
A: 1.6 µg/mL (≈ 2.86 µM)

Q: And the MIC ([2]; clinical strain 21 (Table S2), read-out: MIC)?
A: 3.12 µg/mL (≈ 5.59 µM)

Q: What about the MIC ([2]; clinical strain 22 (Table S2), read-out: MIC) of the same compound?
A: 6.25 µg/mL (≈ 11.2 µM)

Q: What about the MIC ([2]; clinical strain 23 (Table S2), read-out: MIC) of the same compound?
A: 12.5 µg/mL (≈ 22.4 µM)

Q: And the MIC ([2]; clinical strain 24 (Table S2), read-out: MIC)?
A: 6.25 µg/mL (≈ 11.2 µM)

Q: What about the MIC ([2]; clinical strain 25 (Table S2), read-out: MIC) of the same compound?
A: 6.25 µg/mL (≈ 11.2 µM)

Q: What about the MIC ([2]; clinical strain 26 (Table S2), read-out: MIC) of the same compound?
A: 6.25 µg/mL (≈ 11.2 µM)

Q: And the MIC ([2]; clinical strain 27 (Table S2), read-out: MIC)?
A: 3.12 µg/mL (≈ 5.59 µM)

Q: And the MIC ([2]; clinical strain 28 (Table S2), read-out: MIC)?
A: 12.5 µg/mL (≈ 22.4 µM)

Q: What about the MIC ([2]; clinical strain 29 (Table S2), read-out: MIC) of the same compound?
A: 12.5 µg/mL (≈ 22.4 µM)

Q: And the MIC ([2]; clinical strain 30 (Table S2), read-out: MIC)?
A: 12.5 µg/mL (≈ 22.4 µM)

Q: What about the MIC ([2]; clinical strain 31 (Table S2), read-out: MIC) of the same compound?
A: 12.5 µg/mL (≈ 22.4 µM)

Q: And the MIC ([2]; clinical strain 32 (Table S2), read-out: MIC)?
A: 6.25 µg/mL (≈ 11.2 µM)

Q: And the MIC ([2]; clinical strain 33 (Table S2), read-out: MIC)?
A: 3.12 µg/mL (≈ 5.59 µM)

Q: What about the MIC ([2]; clinical strain 34 (Table S2), read-out: MIC) of the same compound?
A: 12.5 µg/mL (≈ 22.4 µM)

Q: What about the MIC ([2]; clinical strain 35 (Table S2), read-out: MIC) of the same compound?
A: 12.5 µg/mL (≈ 22.4 µM)

Q: What about the MIC ([2]; clinical strain 36 (Table S2), read-out: MIC) of the same compound?
A: 50 µg/mL (≈ 89.4 µM)

Q: And the MIC ([2]; clinical strain 37 (Table S2), read-out: MIC)?
A: 12.5 µg/mL (≈ 22.4 µM)

Q: What about the MIC ([2]; clinical strain 38 (Table S2), read-out: MIC) of the same compound?
A: 12.5 µg/mL (≈ 22.4 µM)

Q: What about the MIC ([2]; clinical strain 39 (Table S2), read-out: MIC) of the same compound?
A: 12.5 µg/mL (≈ 22.4 µM)

Q: What about the MIC ([2]; clinical strain 40 (Table S2), read-out: MIC) of the same compound?
A: 25 µg/mL (≈ 44.7 µM)

Q: What about the MIC ([2]; clinical strain 41 (Table S2), read-out: MIC) of the same compound?
A: 25 µg/mL (≈ 44.7 µM)

Q: What about the MIC ([2]; clinical strain 42 (Table S2), read-out: MIC) of the same compound?
A: 12.5 µg/mL (≈ 22.4 µM)

Q: What about the MIC ([2]; clinical strain 43 (Table S2), read-out: MIC) of the same compound?
A: 25 µg/mL (≈ 44.7 µM)

Q: And the MIC ([2]; clinical strain 44 (Table S2), read-out: MIC)?
A: 50 µg/mL (≈ 89.4 µM)

Q: What about the MIC ([2]; clinical strain 45 (Table S2), read-out: MIC) of the same compound?
A: 25 µg/mL (≈ 44.7 µM)

Q: And the MIC ([2]; clinical strain 46 (Table S2), read-out: MIC)?
A: 50 µg/mL (≈ 89.4 µM)

Q: What about the MIC ([2]; clinical strain 47 (Table S2), read-out: MIC) of the same compound?
A: 25 µg/mL (≈ 44.7 µM)

Q: And the MIC ([2]; clinical strain 48 (Table S2), read-out: MIC)?
A: 3.12 µg/mL (≈ 5.59 µM)

Q: What about the MIC ([2]; clinical strain 49 (Table S2), read-out: MIC) of the same compound?
A: 0.1 µg/mL (≈ 0.179 µM)

Q: What about the MIC ([2]; clinical strain 50 (Table S2), read-out: MIC) of the same compound?
A: 50 µg/mL (≈ 89.4 µM)

Q: What about the MIC ([2]; clinical strain 51 (Table S2), read-out: MIC) of the same compound?
A: 50 µg/mL (≈ 89.4 µM)

Q: And the MIC ([2]; clinical strain 52 (Table S2), read-out: MIC)?
A: 3.12 µg/mL (≈ 5.59 µM)

Q: What about the MIC ([2]; clinical strain 53 (Table S2), read-out: MIC) of the same compound?
A: 12.5 µg/mL (≈ 22.4 µM)

Q: And the MIC ([2]; clinical strain 54 (Table S2), read-out: MIC)?
A: 12.5 µg/mL (≈ 22.4 µM)

Q: What about the MIC ([2]; clinical strain 55 (Table S2), read-out: MIC) of the same compound?
A: 50 µg/mL (≈ 89.4 µM)

Q: What about the MIC ([2]; clinical strain 56 (Table S2), read-out: MIC) of the same compound?
A: 3.12 µg/mL (≈ 5.59 µM)

Q: And the MIC ([2]; clinical strain 57 (Table S2), read-out: MIC)?
A: 12.5 µg/mL (≈ 22.4 µM)

Q: And the MIC ([2]; clinical strain 58 (Table S2), read-out: MIC)?
A: 6.25 µg/mL (≈ 11.2 µM)

Q: What about the MIC ([2]; clinical strain 59 (Table S2), read-out: MIC) of the same compound?
A: 50 µg/mL (≈ 89.4 µM)

Q: What about the MIC ([2]; clinical strain 60 (Table S2), read-out: MIC) of the same compound?
A: 3.12 µg/mL (≈ 5.59 µM)

Q: And the MIC ([2]; clinical strain 61 (Table S2), read-out: MIC)?
A: 50 µg/mL (≈ 89.4 µM)

Q: And the MIC ([2]; clinical strain 62 (Table S2), read-out: MIC)?
A: 6.25 µg/mL (≈ 11.2 µM)

Q: What about the MIC ([2]; clinical strain 63 (Table S2), read-out: MIC) of the same compound?
A: 0.4 µg/mL (≈ 0.715 µM)

Q: And the MIC ([2]; clinical strain 64 (Table S2), read-out: MIC)?
A: 6.25 µg/mL (≈ 11.2 µM)

Q: And the MIC ([2]; clinical strain 65 (Table S2), read-out: MIC)?
A: 6.25 µg/mL (≈ 11.2 µM)

Q: What about the MIC ([2]; clinical strain 66 (Table S2), read-out: MIC) of the same compound?
A: 50 µg/mL (≈ 89.4 µM)

Q: And the MIC ([2]; clinical strain 67 (Table S2), read-out: MIC)?
A: 50 µg/mL (≈ 89.4 µM)

Q: What about the MIC ([2]; clinical strain 68 (Table S2), read-out: MIC) of the same compound?
A: 50 µg/mL (≈ 89.4 µM)

Q: And the MIC ([2]; clinical strain 69 (Table S2), read-out: MIC)?
A: 3.12 µg/mL (≈ 5.59 µM)

Q: What about the MIC ([2]; clinical strain 70 (Table S2), read-out: MIC) of the same compound?
A: 50 µg/mL (≈ 89.4 µM)

Q: And the MIC ([2]; clinical strain 71 (Table S2), read-out: MIC)?
A: 50 µg/mL (≈ 89.4 µM)

Q: And the MIC ([2]; clinical strain 72 (Table S2), read-out: MIC)?
A: 3.12 µg/mL (≈ 5.59 µM)

Q: And the MIC ([2]; clinical strain 73 (Table S2), read-out: MIC)?
A: 0.8 µg/mL (≈ 1.43 µM)

Q: What about the MIC ([2]; clinical strain 74 (Table S2), read-out: MIC) of the same compound?
A: 50 µg/mL (≈ 89.4 µM)

Q: What about the MIC ([2]; clinical strain 75 (Table S2), read-out: MIC) of the same compound?
A: 6.25 µg/mL (≈ 11.2 µM)

Q: What about the MIC ([2]; clinical strain 76 (Table S2), read-out: MIC) of the same compound?
A: 3.12 µg/mL (≈ 5.59 µM)

Q: And the MIC ([2]; clinical strain 77 (Table S2), read-out: MIC)?
A: 6.25 µg/mL (≈ 11.2 µM)

Q: And the MIC ([2]; clinical strain 78 (Table S2), read-out: MIC)?
A: 6.25 µg/mL (≈ 11.2 µM)

Q: What about the MIC ([2]; clinical strain 79 (Table S2), read-out: MIC) of the same compound?
A: 6.25 µg/mL (≈ 11.2 µM)

Q: And the MIC ([2]; clinical strain 80 (Table S2), read-out: MIC)?
A: 12.5 µg/mL (≈ 22.4 µM)

Q: And the MIC ([2]; clinical strain 81 (Table S2), read-out: MIC)?
A: 6.25 µg/mL (≈ 11.2 µM)

Q: And the MIC ([2]; mean of MIC values against clinical MDR-SE isolates, read-out: mean MIC)?
A: 10 µg/mL (≈ 17.9 µM)

Q: What about the MIC50 ([2]; 81 clinical strains, concentration inhibiting growth of 50% clinical isolates) of the same compound?
A: 6.25 µg/mL (≈ 11.2 µM)

Q: And the MIC90 ([2]; 81 clinical strains, concentration inhibiting growth of 90% of clinical isolates)?
A: 50 µg/mL (≈ 89.4 µM)
